Results reported in ChEMBL document CHEMBL3085695, “Novel state-dependent voltage-gated sodium channel modulators, based on marine alkaloids from Agelas sponges” (Eur J Med Chem, 2013).

Legend:
[1] = biological target: Sodium channel protein type 3 subunit alpha (Homo sapiens, UniProt Q9NY46); assay: Modulation of human Nav1.3 by automated patch clamp electrophysiology assay
[2] = biological target: Sodium channel protein type 5 subunit alpha (Homo sapiens, UniProt Q14524); assay: Modulation of human Nav1.5 by automated patch clamp electrophysiology assay
Sequence of Sodium channel protein type 5 subunit alpha (Q14524 whole entry): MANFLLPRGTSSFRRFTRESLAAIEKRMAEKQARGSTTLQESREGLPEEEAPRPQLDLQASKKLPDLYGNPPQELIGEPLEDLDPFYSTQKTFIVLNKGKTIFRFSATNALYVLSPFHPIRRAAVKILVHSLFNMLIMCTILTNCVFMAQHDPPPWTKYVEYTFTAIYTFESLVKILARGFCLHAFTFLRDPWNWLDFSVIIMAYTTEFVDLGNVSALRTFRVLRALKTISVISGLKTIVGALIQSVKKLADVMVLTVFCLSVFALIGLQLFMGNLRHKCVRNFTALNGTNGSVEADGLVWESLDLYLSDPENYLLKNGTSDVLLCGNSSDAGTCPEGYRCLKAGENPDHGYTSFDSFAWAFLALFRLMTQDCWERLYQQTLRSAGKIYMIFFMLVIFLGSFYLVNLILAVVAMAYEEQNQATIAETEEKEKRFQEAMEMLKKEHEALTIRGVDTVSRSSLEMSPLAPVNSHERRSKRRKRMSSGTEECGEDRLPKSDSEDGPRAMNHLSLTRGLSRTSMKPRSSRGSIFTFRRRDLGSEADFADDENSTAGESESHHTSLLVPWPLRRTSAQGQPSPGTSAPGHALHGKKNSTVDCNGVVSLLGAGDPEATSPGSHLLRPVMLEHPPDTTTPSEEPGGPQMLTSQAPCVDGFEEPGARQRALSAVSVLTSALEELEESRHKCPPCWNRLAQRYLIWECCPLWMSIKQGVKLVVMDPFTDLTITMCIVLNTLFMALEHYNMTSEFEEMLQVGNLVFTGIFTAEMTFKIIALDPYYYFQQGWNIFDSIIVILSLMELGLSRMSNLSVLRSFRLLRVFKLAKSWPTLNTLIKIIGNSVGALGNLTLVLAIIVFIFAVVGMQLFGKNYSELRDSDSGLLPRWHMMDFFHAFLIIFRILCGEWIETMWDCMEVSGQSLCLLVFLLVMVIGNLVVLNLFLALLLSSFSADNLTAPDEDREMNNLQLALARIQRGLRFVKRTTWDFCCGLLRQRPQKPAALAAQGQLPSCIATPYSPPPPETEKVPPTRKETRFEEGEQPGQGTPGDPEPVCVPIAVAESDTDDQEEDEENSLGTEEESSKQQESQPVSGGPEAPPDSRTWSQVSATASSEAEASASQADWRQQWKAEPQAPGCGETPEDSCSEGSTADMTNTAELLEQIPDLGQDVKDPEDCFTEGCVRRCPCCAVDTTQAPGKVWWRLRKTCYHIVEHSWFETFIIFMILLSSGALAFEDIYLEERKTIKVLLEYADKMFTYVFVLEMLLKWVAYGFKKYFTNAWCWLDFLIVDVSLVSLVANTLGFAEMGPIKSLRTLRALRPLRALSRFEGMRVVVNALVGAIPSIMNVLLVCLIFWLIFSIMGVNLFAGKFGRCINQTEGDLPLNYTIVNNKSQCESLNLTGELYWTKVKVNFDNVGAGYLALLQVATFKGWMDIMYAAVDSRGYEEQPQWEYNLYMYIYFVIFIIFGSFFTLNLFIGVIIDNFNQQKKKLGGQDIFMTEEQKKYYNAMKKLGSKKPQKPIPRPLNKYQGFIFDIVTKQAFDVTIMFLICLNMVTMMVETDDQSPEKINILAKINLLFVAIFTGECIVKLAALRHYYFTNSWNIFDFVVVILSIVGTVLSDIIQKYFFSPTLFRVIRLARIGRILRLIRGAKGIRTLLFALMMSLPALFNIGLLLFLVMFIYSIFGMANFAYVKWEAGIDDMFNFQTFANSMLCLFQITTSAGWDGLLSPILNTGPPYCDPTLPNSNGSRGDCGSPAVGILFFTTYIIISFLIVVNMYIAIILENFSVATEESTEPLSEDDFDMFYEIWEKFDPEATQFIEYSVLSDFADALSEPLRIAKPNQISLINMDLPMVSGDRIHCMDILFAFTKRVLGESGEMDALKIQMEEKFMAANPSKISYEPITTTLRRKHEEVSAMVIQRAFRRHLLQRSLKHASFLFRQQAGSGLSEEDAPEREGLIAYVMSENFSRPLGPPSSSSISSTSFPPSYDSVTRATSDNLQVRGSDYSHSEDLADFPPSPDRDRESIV

[3] = biological target: Sodium channel protein type 9 subunit alpha (Homo sapiens, UniProt Q15858); assay: Modulation of human Nav1.7 by automated patch clamp electrophysiology assay
Sequence of Sodium channel protein type 9 subunit alpha (Q15858 whole entry): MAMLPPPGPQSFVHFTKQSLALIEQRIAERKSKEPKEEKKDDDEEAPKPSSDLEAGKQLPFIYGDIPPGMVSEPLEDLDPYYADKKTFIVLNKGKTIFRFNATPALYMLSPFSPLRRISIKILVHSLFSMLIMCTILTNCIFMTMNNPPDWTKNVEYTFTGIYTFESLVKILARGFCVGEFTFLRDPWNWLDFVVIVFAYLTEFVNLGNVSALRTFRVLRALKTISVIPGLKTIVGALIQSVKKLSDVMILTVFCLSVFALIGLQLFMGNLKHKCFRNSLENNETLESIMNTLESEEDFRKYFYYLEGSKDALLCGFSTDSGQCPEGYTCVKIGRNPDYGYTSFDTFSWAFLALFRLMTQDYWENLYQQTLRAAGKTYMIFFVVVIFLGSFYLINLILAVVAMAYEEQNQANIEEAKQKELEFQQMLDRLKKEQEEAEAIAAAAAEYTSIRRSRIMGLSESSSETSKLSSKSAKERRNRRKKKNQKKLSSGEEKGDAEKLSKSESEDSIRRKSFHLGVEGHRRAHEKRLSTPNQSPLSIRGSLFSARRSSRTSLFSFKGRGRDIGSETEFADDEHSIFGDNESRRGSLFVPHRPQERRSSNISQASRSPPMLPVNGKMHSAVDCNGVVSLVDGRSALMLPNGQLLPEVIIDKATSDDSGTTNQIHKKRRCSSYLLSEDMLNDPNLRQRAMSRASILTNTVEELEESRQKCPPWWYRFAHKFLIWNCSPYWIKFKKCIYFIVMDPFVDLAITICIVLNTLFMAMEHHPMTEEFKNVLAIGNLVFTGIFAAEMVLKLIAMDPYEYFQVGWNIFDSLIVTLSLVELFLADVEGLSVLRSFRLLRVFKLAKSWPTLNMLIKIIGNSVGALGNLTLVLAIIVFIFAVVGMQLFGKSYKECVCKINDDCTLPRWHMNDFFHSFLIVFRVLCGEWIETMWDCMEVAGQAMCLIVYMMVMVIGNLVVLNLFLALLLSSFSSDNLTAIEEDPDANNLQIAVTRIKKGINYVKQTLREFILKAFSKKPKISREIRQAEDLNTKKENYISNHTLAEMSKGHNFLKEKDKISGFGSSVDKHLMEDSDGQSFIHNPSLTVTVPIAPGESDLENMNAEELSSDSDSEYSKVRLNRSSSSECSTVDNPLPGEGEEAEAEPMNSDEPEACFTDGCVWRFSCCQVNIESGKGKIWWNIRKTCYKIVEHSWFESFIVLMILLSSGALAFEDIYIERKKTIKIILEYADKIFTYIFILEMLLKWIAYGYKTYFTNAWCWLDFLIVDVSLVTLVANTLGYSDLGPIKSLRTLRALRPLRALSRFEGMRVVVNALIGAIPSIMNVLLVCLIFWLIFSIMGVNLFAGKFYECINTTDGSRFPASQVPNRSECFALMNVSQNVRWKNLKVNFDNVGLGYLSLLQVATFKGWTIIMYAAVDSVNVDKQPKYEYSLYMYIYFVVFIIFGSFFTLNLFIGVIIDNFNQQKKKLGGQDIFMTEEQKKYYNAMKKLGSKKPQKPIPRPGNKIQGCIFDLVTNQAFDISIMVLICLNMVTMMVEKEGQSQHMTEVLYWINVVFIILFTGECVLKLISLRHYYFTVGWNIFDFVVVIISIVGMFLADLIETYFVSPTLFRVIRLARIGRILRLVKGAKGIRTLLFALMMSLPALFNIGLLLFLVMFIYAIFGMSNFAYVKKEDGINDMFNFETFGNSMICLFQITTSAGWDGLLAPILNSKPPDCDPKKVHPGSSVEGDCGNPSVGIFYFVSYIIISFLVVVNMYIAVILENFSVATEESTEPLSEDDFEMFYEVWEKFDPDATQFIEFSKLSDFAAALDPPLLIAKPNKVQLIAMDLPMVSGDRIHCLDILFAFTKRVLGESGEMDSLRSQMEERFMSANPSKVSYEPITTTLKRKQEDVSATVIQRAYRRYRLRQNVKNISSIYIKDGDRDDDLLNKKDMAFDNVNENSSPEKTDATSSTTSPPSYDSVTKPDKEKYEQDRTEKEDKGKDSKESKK

[4] = biological target: Sodium channel protein type 4 subunit alpha (Homo sapiens, UniProt P35499); assay: Modulation of human Nav1.4 by automated patch clamp electrophysiology assay

Row | Compound | IC50 [1] [µM] | IC50 [3] [µM] | IC50 [4] [µM] | IC50 [2] [µM]
1 | Cn1cccc1C(=O)N[C@H]1CCc2nc(N)sc2C1 | 24 | > 30 | 16 | > 30
2 | CC(C)(C)OC(=O)N1CCC[C@H]1C(=O)NCC1CCc2nc(N)sc2C1 (stereo partly specified) | 26 | > 30 | > 30 | 20
3 | Nc1nc2c(s1)C[C@@H](NCc1ccc[nH]1)CC2 | 25 | 21 | 30 | > 30
4 | Nc1nc2c(s1)CC(CNC(=O)[C@@H]1CCCN1)CC2 (stereo partly specified) | > 30 | > 30 | > 30 | > 30
5 | Nc1nc2c(s1)C[C@@H](NC(=O)c1ccc[nH]1)CC2 | > 30 | 21 | > 30 | > 30
6 | Nc1nc2c(s1)C[C@@H](NC(=O)c1cc(Br)c(Br)[nH]1)CC2 | 26 | 16 | 15 | > 30
7 | Nc1nc2c(s1)CC(CNC(=O)c1cc3ccccc3[nH]1)CC2 (stereo unspecified) | 16 | 23 | 21 | > 30

More lines, main results first:

Row | IC50 [1] [µM] | IC50 [3] [µM] | IC50 [4] [µM] | Compound | IC50 [2] [µM]
8 | 18 | 23 | > 30 | Nc1nc2c(s1)CC(CNC(=O)c1cc(Br)c(Br)[nH]1)CC2 (stereo unspecified) | > 30
9 | > 30 | > 30 | 25 | Nc1nc2c(s1)C[C@@H](NC(=O)[C@@H]1CCCN1)CC2 | > 30
10 | 28 | 20 | > 30 | Nc1nc2c(s1)CC(CNC(=O)c1ccc[nH]1)CC2 (stereo unspecified) | 21
11 | > 30 | 29 | 16 | Nc1nc2c(s1)C[C@@H](NC(=O)c1cc3ccccc3[nH]1)CC2 | > 30
12 | 27 | > 30 | > 30 | Nc1nc2c(s1)C[C@@H](NC(=O)c1ccco1)CC2 | > 30
13 | > 30 | > 30 | 8 | CC(C)(C)OC(=O)N1CCC[C@H]1C(=O)N[C@H]1CCc2nc(N)sc2C1 | > 30
14 | 26 | 18 | > 30 | Nc1nc2c(s1)C[C@@H](NC(=O)c1cc(Br)c[nH]1)CC2 | 21
